Assay results from US20220378744A1, “COMPOUNDS FOR TREATING PROLIFERATOR-ACTIVATED RECEPTORS (PPAR) MEDIATED DISEASES OR CONDITIONS” (MEDIPURE PHARMACEUTICALS INC., priority 2021, published 2022).

Columns and labels:
[1] = test system: IMQ-induced psoriasis in BALB/c mice; assay: IMQ-induced psoriasis model in BALB/c mice, topical creams, PASI score; type: in vivo; conditions: for tolerability in mice / visual damage on the skin: topical, seven-day consecutive treatment; for tolerability in mice: even at 10% creams; for visual damage on the skin: up to 10% creams
Procedure: The animal experiment is conducted in accordance with the Guidelines for the Institutional Animal Care and Use Committee. Both male and female BALB/c mice from Rodenta Bioserve, India, at 7-8 weeks of age and 20-25 gram of body weight are housed in a laboratory environment with constant temperature (24.0±1.0° C.) and relative humidity (45.0-55.0%) on a 12 h light/dark cycles. These animals are provided free access to unlimited amounts of food and water during the entire experiment. The animals are divided into 12 groups of 8 mice each and shaved on the back on day 0 for an area of 2×2 cm . Human-like psoriasis in mice is induced by topical application of 5% Imiquimod (IMQ) procured from AK Scientific, USA, and formulated in the base cream at desired percentages in-house, in shaved area and right ear (0.5×0.5 cm). […] Vehicle, clobetasol propionate (CP, Sigma. 0.05% w/w; positive control), test creams, and CBD (Ilesol Pharmaceuticals), respectively, is applied topically on both the shaved back (80 mg cream) and the right ear (20 mg cream) of mice, once daily from day 10 to day 16. The study ends at day 17. At stated time points the severity of psoriasis is evaluated using the PASI score (Psoriasis Area Severity Index: sum of erythema, scaling and thickening, scored independently from 0 to 4 for each mouse; max PASI score=12). Tissue and blood samples are collected for histopathology, biochemistry and immunoassay from each animal at various points.

[2] = test system: IMQ-stimulated HaCaT cells; assay: Anti-inflammatory effect, IMQ-stimulated HaCaT cell model (IL-6, IL-8 ELISA); type: cell-based, human; conditions: IMQ 50 μM, 24 h, vs control
Procedure: (§1) Three in vitro models based on HaCaT cell culture were tested. HaCaT cells were maintained as described above in DMEM high glucose (4.5g/L) medium supplemented with 10% FBS and 1% (v/v) penicillin/streptomycin solution (Invitrogen, Thermo Fisher) and kept in an incubator at 37° C. with 5% CO2. For experiments, the cells were seeded at 5×10^4 cells/well in 1 mL of medium to a 24-well culture plate (Nunc, Thermo Fisher) and incubated overnight.
(§2) (1) For the imiquimod (IMQ)-stimulated HaCaT model, IMQ (Alfa Aesar) at 50 μM final concentration was used in the experiments; (2) for TNFα/IL-17A-stimulated-HaCaT model, 2 ng/mL of each cytokine (R&D Systems) was used; and (3) for the lipopolysaccharide (LPS, Sigma) simulated HaCaT cell model, 20 μg/mL LPS was used. For drug chemical treatment the old medium in the culture plates described above was discarded and the corresponding stimulant (IMQ, TNFα/IL-17A, or LPS) with or without test chemicals in 0.5 mL fresh medium was added to each cell well. There were duplicate wells for each treatment. The plate was incubated for another 24 h and the supernatant was collected for cytokine analysis, namely IL-6 and IL-8, using the corresponding ELISA kits (Thermo Fisher).

human PPARγ (NR1C3) = biological target: T1, human PPARγ (NR1C3) (Homo sapiens, UniProt P37231); assay: Cell-based human PPARγ transactivation (nuclear receptor reporter) assay; conditions: FIG. 3
T1 sequence (P37231 1-505): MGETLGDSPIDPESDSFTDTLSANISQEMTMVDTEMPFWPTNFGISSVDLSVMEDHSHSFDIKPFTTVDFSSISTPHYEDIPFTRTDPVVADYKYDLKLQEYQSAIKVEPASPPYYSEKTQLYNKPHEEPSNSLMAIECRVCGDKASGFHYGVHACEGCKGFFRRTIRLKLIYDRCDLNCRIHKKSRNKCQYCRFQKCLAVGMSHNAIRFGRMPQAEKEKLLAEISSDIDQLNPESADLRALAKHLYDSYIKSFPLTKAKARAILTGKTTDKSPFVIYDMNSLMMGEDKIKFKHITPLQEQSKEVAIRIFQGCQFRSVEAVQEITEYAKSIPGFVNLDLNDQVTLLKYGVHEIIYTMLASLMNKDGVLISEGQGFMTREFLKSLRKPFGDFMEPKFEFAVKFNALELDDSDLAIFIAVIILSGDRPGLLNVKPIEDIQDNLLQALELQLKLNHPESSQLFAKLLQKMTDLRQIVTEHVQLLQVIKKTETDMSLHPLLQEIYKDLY
Procedure: (§3) The assay was performed using cell-based human PPAR nuclear receptor reporter assay kits (NR1C1 for PPARα; NR1C2 for PPARδ/β, and NR1C3 for PPARγ, Indigo Biosciences) by following the manufacturer's instruction. In brief, PPAR reporter cells were added to CRM medium (Indigo Biosciences), seeded into wells of a 96-well culture plate and incubated for 5 hours in a cell culture incubator at 37° C. with 5% CO2. The medium was then removed, and the cells were treated with test compounds at different concentrations in CSM medium (Indigo Biosciences) for 24 h inside the incubator. […] DMSO (Sigma) at 0.1% (v/v) was used as negative baseline control (C). Each treatment was tested in duplicate wells. At the end point of the experiments, the treatment medium was discarded and Luciferase Detection Reagent (Indigo Biosciences) was added. Following a 10-minute rest period, the intensity of light emission (in units of “Relative Light Units; RLU”) from each assay well was quantified using a plate-reading luminometer (Synergy H1 plate reader, BioTek). In addition, live cell multiplex assay (Indigo Biosciences) was combined with the activation assays to detect potential cytotoxic effect, if any, of the test chemicals to normalize the signals as per manufacturer's instruction.

[3] = test system: LPS-stimulated HaCaT cells; assay: Anti-inflammatory effect, LPS-stimulated HaCaT cell model (IL-6, IL-8 ELISA); type: cell-based, human; conditions: LPS 20 μg/mL, 24 h
Procedure: as §1
as §2, with “Fisher). The experiments were repeated independently to confirm the observation.” for “Fisher).”

human PPARα (NR1C1) = biological target: T2, human PPARα (NR1C1) (Homo sapiens, UniProt Q07869); assay: Cell-based human PPARα transactivation (nuclear receptor reporter) assay; conditions: luciferase reporter cells, 24 h treatment, FIG. 1
T2 sequence (Q07869 1-468): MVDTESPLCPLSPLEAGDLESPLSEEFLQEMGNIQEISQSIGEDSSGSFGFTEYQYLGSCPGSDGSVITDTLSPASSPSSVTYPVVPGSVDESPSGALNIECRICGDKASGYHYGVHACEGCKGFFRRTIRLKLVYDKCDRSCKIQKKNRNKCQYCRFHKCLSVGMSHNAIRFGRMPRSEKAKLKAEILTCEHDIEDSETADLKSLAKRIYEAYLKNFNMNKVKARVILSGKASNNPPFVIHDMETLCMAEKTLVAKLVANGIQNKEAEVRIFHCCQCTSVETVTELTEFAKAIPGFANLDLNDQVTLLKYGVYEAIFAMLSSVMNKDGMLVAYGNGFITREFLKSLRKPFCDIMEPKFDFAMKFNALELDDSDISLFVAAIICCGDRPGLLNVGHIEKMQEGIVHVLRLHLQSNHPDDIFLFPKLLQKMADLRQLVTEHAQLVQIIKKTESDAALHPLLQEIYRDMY
Procedure: as §3

human PPARδ/β (NR1C2) = biological target: T3, human PPARδ/β (NR1C2) (Homo sapiens, UniProt Q03181); assay: Cell-based human PPARδ/β transactivation (nuclear receptor reporter) assay; conditions: at tested concentrations
T3 sequence (Q03181 1-441): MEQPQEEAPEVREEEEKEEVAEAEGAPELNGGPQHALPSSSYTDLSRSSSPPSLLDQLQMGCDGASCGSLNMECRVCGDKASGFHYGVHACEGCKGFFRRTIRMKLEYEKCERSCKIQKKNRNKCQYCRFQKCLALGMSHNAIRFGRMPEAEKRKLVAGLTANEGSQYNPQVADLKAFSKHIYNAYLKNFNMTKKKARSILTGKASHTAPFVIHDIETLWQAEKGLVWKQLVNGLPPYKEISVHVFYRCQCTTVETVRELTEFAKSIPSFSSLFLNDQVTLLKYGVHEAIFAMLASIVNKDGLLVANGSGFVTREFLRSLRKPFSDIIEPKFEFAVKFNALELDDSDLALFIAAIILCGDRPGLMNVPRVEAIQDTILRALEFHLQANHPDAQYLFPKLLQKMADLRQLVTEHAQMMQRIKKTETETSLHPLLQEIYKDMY
Procedure: as §3

[4] = test system: TNFα/IL-17A-stimulated HaCaT cells; assay: Anti-inflammatory effect of combined test compounds (Abn-CBD/CBD and PPAR agonists) in TNFα/IL-17A-stimulated HaCaT cells; type: cell-based, human
Procedure: HaCaT cells were maintained as described above in DMEM high glucose (4.5 g/L) medium supplemented with 10% FBS and 1% (v/v) penicillin/streptomycin solution (Invitrogen, Thermo Fisher) and kept in an incubator at 37° C. with 5% CO2. For experiments the cells were seeded at 5×10^4 cells/well in 0.5 mL of medium to a 24-well culture plate (Nunc, Thermo Fisher) and incubated overnight. The old medium in the culture plates was discarded and the corresponding stimulant, TNFα/IL-17A (R&D Systems) at 2 ng/mL each, with or without test chemicals in 0.5 mL of fresh medium was added to each cell well in the plate. There were duplicate wells for each treatment. The plate was incubated for another 24 h and the supernatant was collected for cytokine analysis, namely IL-6 and IL-8, using ELISA kits (Thermo Fisher).

[5] = creams at 1% and 5%, once daily day 10 to day 16, FIG. 11
[6] = initial studies, range 1 to 30 μM, HaCaT model

## CCCc1cc(C(=O)c2ccc(F)cc2)ccc1OCCCOc1ccc2c(cnn2CC(=O)OC)c1 [MP-152, methyl 2-(5-(3-(4-(4-fluorobenzoyl)-2-propylphenoxy)nropoxy)-1H-indazol-1-yl)acetate]
[1]; [5]
  reducing the PASI score compared with CP: more effective than CP
  reducing the PASI score, rank among the treatment groups: most active
[1]
  tolerability in mice: well tolerated
  visual damage on the skin: No visual damage
[2]; compound at 2.5 μM
  production of IL-6: significantly inhibited
[2]; compound at 25 μM
  production of IL-6: significantly inhibited
Human PPARγ (NR1C3)
  PPARγ transactivation: concentration at which (or starting at which) active: 1,000 nM
[3]; 25 μM
  reduction of IL-8 production compared with rosiglitazone and fenofibrate: more active
[3]; compound at 25 uM
  production of IL-6: reduced
Human PPARα (NR1C1)
  PPARα transactivation: concentration at which (or starting at which) active: 1 µM

## CSc1ccc(C(=O)/C=C/c2cc(C)c(OC(C)(C)C(=O)O)c(C)c2)cc1 [elafibranor]
Human PPARδ/β (NR1C2)
  PPARδ/β transactivation activity: showed activities

## CCO[C@@H](Cc1ccc(OCCn2c(C)ccc2-c2ccc(SC)cc2)cc1)C(=O)O [saroglitazar]
Human PPARδ/β (NR1C2)
  PPARδ/β transactivation activity: showed activities

## C=C(C)[C@@H]1CCC(C)=C[C@H]1c1c(O)cc(CCCCC)cc1O [CBD, cannabidiol, reference compound]
[4]; at higher concentrations, e.g. 30 μM
  HaCaT growth: inhibit HaCaT growth
[4]; [6]
  production of IL-6: reduced
  production of IL-8: reduced
[1]
  tolerability in mice: well tolerated
  visual damage on the skin: No visual damage
